Experimental data reported in patent publication US6325989A, “Form of dipeptidylpeptidase IV (CD26) found in human serum” (Dana-Farber Cancer Institute, Inc., priority 1995, dated 2001).
pIC50: −log10 of the molar value. Residues, ends and D or L forms follow the SMILES beside them. *: point of attachment. pNA = O=[N+]([O-])c1ccc(N*)cc1

Key:
[1] = tested on: soluble serum DPPIV/CD26, 175 kDa form, purified from normal human serum; assay: DPPIV activity assay (hydrolysis of Gly-Pro-pNA; Michaelis-Menten kinetics and inhibition); format: biochemical
Experimental: (§1) The DPPIV enzyme activities of the rsCD26 and serum DPPIV were analyzed by Michaelis-Menten kinetics by assessing kinetics of hydrolysis of substrate at different concentrations. […] To further exclude the possibility that we had purified irrelevant aminopeptidases which, working in concert or by sequential hydrolysis, could release the pNA chromophore from substrate, we tested a number of substrates which could be hydrolyzed by non-DPPIV aminopeptidases. One candidate for sequential hydrolysis is aminopeptidase M (3.4.11.2), but no hydrolysis of Ala-pNA, Arg-pNA or Leu-pNA was observed and activity by aminopolypeptidase (3.4.11.14) may be similarly excluded. The substrate succinyl-Gly-Pro-pNA was also not hydrolyzed. The only substrate apart from the dipeptide chromatogen Gly-Pro-pNA which could be hydrolyzed was Val-Ala-pNA, which was cleaved by both the serum DPPIV and rsCD26 (relative to rate of hydrolysis of Gly-Pro-pNA, hydrolysis of Val-Ala-pNA was 0.098 and 0.079, for rsCD26 and serum DPPIV, respectively). Although DPPIV primarily hydrolyses dipeptides with a proline in the penultimate position, it is well documented that alanine in the penultimate position may also render a dipeptide sequence susceptible to cleavage by DPPIV (8). […]
The primary substrate used for determining DPPIV activity in all assays was Gly-Pro-p-nitroanilide (Gly-Pro-pNA; Sigma), which is hydrolyzed by DPPIV to release pNA absorbing strongly at 405 nm. […] Inhibition of the hydrolysis of Gly-Pro-pNA was determined in the presence of the specific DPPIV inhibitor Diprotin A (Bachem, King of Prussia, Pa.). […] The pH optimum was determined substituting phosphate buffer (100 mM, pH4.5-pH9) in place of standard incubation buffer.
Serum DPPIV was prepared by isolating from 100 ml of pooled normal human male AB serum the fraction of protein precipitated by 50-70% saturated ammonium sulfate. […] The DPPIV activity was eluted by a 0-0.5M NaCl gradient in equilibration buffer and all DPPIV activity was found in the 10 mM-50 mM NaCl eluate (determined by conductance). […]

[2] = target: T1, recombinant soluble CD26 (rsCD26), full extracellular domain of human T cell membrane CD26/DPPIV, 105 kDa form, from transfected CHO cells (Homo sapiens, UniProt P27487); assay: as above; format: biochemical
T1 construct: The full extracellular domain of T cell membrane-expressed CD26 (rsCD26); made in house; host or cells: transfected CHO cells
T1 sequence (P27487 29-766 limits assumed): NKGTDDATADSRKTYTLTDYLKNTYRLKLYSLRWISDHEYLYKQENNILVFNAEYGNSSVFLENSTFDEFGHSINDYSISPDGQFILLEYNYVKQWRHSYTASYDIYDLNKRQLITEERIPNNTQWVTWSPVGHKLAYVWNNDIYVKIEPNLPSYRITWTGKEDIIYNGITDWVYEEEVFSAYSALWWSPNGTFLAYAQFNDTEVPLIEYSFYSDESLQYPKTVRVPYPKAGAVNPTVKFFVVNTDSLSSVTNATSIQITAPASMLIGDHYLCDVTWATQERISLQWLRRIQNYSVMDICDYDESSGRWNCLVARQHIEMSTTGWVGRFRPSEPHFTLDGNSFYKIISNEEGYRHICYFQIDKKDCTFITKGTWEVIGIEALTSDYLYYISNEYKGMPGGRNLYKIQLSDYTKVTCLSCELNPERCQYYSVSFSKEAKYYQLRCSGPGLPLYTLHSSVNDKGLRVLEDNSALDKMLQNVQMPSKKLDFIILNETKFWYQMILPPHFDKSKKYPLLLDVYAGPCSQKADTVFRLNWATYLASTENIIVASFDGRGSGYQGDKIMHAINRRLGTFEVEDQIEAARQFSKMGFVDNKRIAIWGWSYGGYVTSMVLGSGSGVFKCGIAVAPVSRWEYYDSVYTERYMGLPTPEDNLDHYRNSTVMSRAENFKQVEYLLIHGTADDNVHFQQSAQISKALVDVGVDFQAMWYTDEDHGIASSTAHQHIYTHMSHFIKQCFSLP
Experimental: as §1, with “respectively).” for “respectively). Although DPPIV primarily hydrolyses dipeptides with a proline in the penultimate position, it is well documented that alanine in the penultimate position may also render a dipeptide sequence susceptible to cleavage by DPPIV (8).”
The primary substrate used for determining DPPIV activity in all assays was Gly-Pro-p-nitroanilide (Gly-Pro-pNA; Sigma), which is hydrolyzed by DPPIV to release pNA absorbing strongly at 405 nm. […] Inhibition of the hydrolysis of Gly-Pro-pNA was determined in the presence of the specific DPPIV inhibitor Diprotin A (Bachem, King of Prussia, Pa.). […]

[3] = Lineweaver-Burke transformation
[4] = unit defined at pH7.6 and 20° C.

| Km [1, 3] [µM] | Km [2, 3] [µM] | Vmax, using Gly-Pro-pNA as substrate [2, 4] [U/nmol rsCD26] | SMILES | pIC50 ([1]; substrate Gly-Pro-pNA) | Vmax, using Gly-Pro-pNA as substrate [1, 4] [U/nmol serum DPPIV] |
| --- | --- | --- | --- | --- | --- |
| – | – | – | CC[C@H](C)[C@H](N)C(=O)N1CCC[C@H]1C(=O)N[C@H](C(=O)O)[C@@H](C)CC [Diprotin A] | 3.60 | – |
| 280 | 280 | 1.52 | NCC(=O)N1CCC[C@H]1C(=O)Nc1ccc([N+](=O)[O-])cc1 [Gly-Pro-pNA, Gly-Pro-p-nitroanilide] (H-Gly-Pro-pNA) | – | 0.65 |
